SMILES strings stand for the structures. In brackets after ≈: the same amount, converted by molar mass.

For this series the following is noted: buffer; pH 7.4; 200.0 µM.
For orientation: solubility (kinetic) means the concentration staying in solution when a stock, usually in DMSO, is diluted into the medium. `COc1cc(NC(=O)c2ccc(N3CCCC3=O)cc2)cc(OC)c1` registered a kinetic solubility of 10.4 µg/mL (≈ 30.6 µM).

With `CCCNC(=O)Cn1sc2nc(C)cc(C)c2c1=O`, the kinetic solubility was greater than 41.9 µg/mL.

On to `Cc1ccc2ncnc(Oc3ncccc3NC(=O)C(C)(C)C)c2c1`, for which the kinetic solubility was greater than 50.5 µg/mL. For the molecule `O=C1NNC(=O)C1c1ccccc1`, the solubility (kinetic) was greater than 26.4 µg/mL.

Consider `COc1cc(/C=C\C(=O)O)cc(S(=O)(=O)N2CCCCCC2)c1OC`, for which the kinetic solubility amounted to 52.8 µg/mL (≈ 143 µM). `Nc1ccc(CCC(=O)N2CCCC2)cc1` had a kinetic solubility greater than 32.7 µg/mL. For the molecule `Cc1cc(C)c(S(=O)(=O)NCc2cccs2)cc1C`, the kinetic solubility was found to be 36.5 µg/mL (≈ 124 µM). With `Cc1ccccc1OCc1ccc(C(=O)N2CCOCC2)o1` the figure was 41.2 µg/mL (≈ 137 µM); with `CCc1ccc(NC(=O)CN2CC(c3ccccc3)CC2=O)cc1` (centres undefined), greater than 48.4 µg/mL. Molecule `COc1ccc(CN2C(=O)C(C)=C(C)C2OC)cc1` (centres undefined) returned a solubility (kinetic) greater than 39.2 µg/mL. As for `O=C(NC(=S)N1CCOCC1)c1ccc(F)cc1`, the figure is greater than 40.2 µg/mL. As for `CCOC(=O)c1cccc(NC(=O)c2ccc3c(c2)OCO3)c1`, the figure is 2.7 µg/mL (≈ 8.62 µM); as for `Cn1c(=O)c2c(ncn2CCC(=O)N/N=C/c2ccccc2)n(C)c1=O`, greater than 53.2 µg/mL. `O=[N+]([O-])c1ccc(SCCc2ccccn2)cc1`: the solubility (kinetic) turned out to be 30.6 µg/mL (≈ 118 µM). With `O=c1cc(C(F)(F)F)nc(SC/C=C/c2ccccc2)[nH]1` the figure was greater than 46.8 µg/mL. With `CCOC(=O)C1CCN(C(=O)Nc2ccc(OC(F)(F)F)cc2)CC1` the figure was 16.1 µg/mL (≈ 44.7 µM); with `CCCN1CNc2c(c(=O)[nH]c(=S)n2-c2ccccc2Cl)C1`, greater than 50.5 µg/mL.

With `Cc1cc([N+](=O)[O-])ccc1NC(=O)c1csc(C)c1C`, the kinetic solubility was 1.1 µg/mL (≈ 3.79 µM). As for `CCN(C(=O)Cc1c(C(=O)O)n(C)c2ccccc12)c1cccc(C)c1`, the figure is greater than 52.6 µg/mL. Take `COc1ccc(-c2[nH]c3ccccc3c2SCCN)cc1`: the solubility (kinetic) amounted to 31.9 µg/mL (≈ 107 µM). As for `O=S(=O)(c1ccccc1)c1nc(-c2ccccc2)oc1N1CCOCC1`, the figure is 1.2 µg/mL (≈ 3.24 µM). As for `Cn1c(CNC(=O)OC(C)(C)C)n[nH]c1=S`, the kinetic solubility was greater than 36.6 µg/mL.

As to `Cc1ccc(C)c(SCC(=O)Nc2cccc(S(=O)(=O)N3CCOCC3)c2)c1`, the solubility (kinetic) came out at 21.4 µg/mL (≈ 50.9 µM). Take `CCCCCC1CCC(c2ccc(/C(N)=N/O)cc2)CC1` (centres undefined): the solubility (kinetic) is less than 0.3 µg/mL. With `CCC1CN(C(=O)NCc2cccc(OC)c2)c2cc(Cl)ccc2O1` (centres undefined) the figure was 4.5 µg/mL (≈ 12.5 µM).

In turn, `NS(=O)(=O)c1ccc(CCNC(=S)NC(=O)c2ccccc2Br)cc1` yielded a kinetic solubility of 3.3 µg/mL (≈ 7.46 µM). As for `Cc1cc(C)cc(C(=O)Nc2ccncc2)c1`, the figure is greater than 33.9 µg/mL; as for `Cc1ccc(CN2CCN(Cc3ccncc3)CC2CCO)o1` (centres undefined), 34.3 µg/mL (≈ 109 µM); as for `CCOC(=O)C1CCN(C(=O)/C(=C/c2ccccc2)NC(=O)c2ccccc2)CC1`, greater than 61 µg/mL.

Molecule `O=C(NCCCN1CCOCC1)c1cn(-c2ccccc2)nc1-c1ccc(F)cc1` registered a solubility (kinetic) greater than 61.3 µg/mL. With `O=C1CSC(=Nc2ccc(Cl)cc2)N1Cc1ccco1` the figure was 10.9 µg/mL (≈ 35.5 µM); with `CCN(CC)c1ccc(N=Cc2c(O)[nH]c(=O)[nH]c2=O)cc1`, 5.8 µg/mL (≈ 19.2 µM); with `O=C(COC(=O)/C=C/c1ccc(Cl)cc1)NC1CCCC1`, 3.5 µg/mL (≈ 11.4 µM). With `Cc1cccc(C(=O)NCCNC(=O)c2cccnc2)c1` the figure was 37.5 µg/mL (≈ 132 µM); with `COCCCNC(=O)c1ccc(-c2csc(C)n2)cc1`, greater than 43.6 µg/mL; with `O=[N+]([O-])c1ccccc1S(=O)(=O)N1CCN(Cc2ccccc2)CC1`, 24.4 µg/mL (≈ 67.5 µM).

As for `C=CCOc1ccc(C2NC(=O)c3ccccc3O2)cc1` (centres undefined), the kinetic solubility was found to be 1.3 µg/mL (≈ 4.62 µM). The molecule `O=C(c1cccs1)N1CCN(S(=O)(=O)c2cccs2)CC1` registered a solubility (kinetic) of 47.3 µg/mL (≈ 138 µM). As to `O=C(CCNC(=O)c1ccco1)Nc1cccc(C(F)(F)F)c1`, the solubility (kinetic) is greater than 48.9 µg/mL. As for `Cc1nonc1NC(=O)c1oc2ccc(F)cc2c1C`, the figure is 0.7 µg/mL (≈ 2.54 µM). Consider `CCCC(=O)Nc1ccc2c(c1)nc(CCN1CCCCC1)n2C`, for which the kinetic solubility is greater than 49.3 µg/mL. With `O=C(COc1ccc(Cl)cc1Cl)N1CCNC1=O` the figure was 31 µg/mL (≈ 107 µM).

Molecule `Cc1cc(N)ccc1-c1cc2ccccc2oc1=O` displayed a solubility (kinetic) of 25.8 µg/mL (≈ 103 µM). Take `COc1ccc(NC(=S)/N=C(\N)Nc2nc(C)c3ccccc3n2)cc1`: the solubility (kinetic) turned out to be 0.7 µg/mL (≈ 1.91 µM).

As for `COc1cc2c(cc1OC)C(c1ccccc1OC(C)C)CC(=O)N2` (centres undefined), the kinetic solubility is less than 0.7 µg/mL.

For `O=C(CN1CCCC1)Nc1cc(C(F)(F)F)ccc1Cl`, the kinetic solubility turned out to be 18.1 µg/mL (≈ 59 µM).

Molecule `O=C(COC(=O)CCc1ccc(S(=O)(=O)N2CCOCC2)cc1)Nc1ccccc1OC(F)F` yielded a kinetic solubility of 49.5 µg/mL (≈ 99.3 µM). For `CN(C(=O)c1coc(=O)c2ccccc12)c1ccccc1Cl`, the solubility (kinetic) worked out at 44.2 µg/mL (≈ 141 µM).

For the molecule `CCc1cccc(NC(=O)CCCCCC2NC(=O)NC2C)c1` (centres undefined), the solubility (kinetic) was greater than 47.6 µg/mL. In turn, `COc1ccc2cc(Br)ccc2c1CC(=O)NCCCN1CCOCC1` registered a kinetic solubility greater than 63.2 µg/mL.

For the molecule `O=C(Nc1ccc(S(=O)(=O)N2CCCCC2)cc1)C1CCCCC1`, the kinetic solubility is 13.5 µg/mL (≈ 38.5 µM). As for `CCCCNC(=NCc1cccc(C(F)(F)F)c1)Nc1ccccc1`, the figure is 45.7 µg/mL (≈ 131 µM); as for `O=C(CSc1ccccc1C(=O)O)Nc1ccc2c(c1)OCO2`, greater than 49.7 µg/mL. Molecule `COc1cc(/C=C/C(=O)OCC(=O)NC2CC2)cc(OC)c1OC` gave a kinetic solubility greater than 50.3 µg/mL. Regarding `COc1ccc(C(=O)NCC(=O)OCC(=O)N2CC(C)OC(C)C2)cc1OC` (centres undefined), the solubility (kinetic) is greater than 59.2 µg/mL. Regarding `O=[N+]([O-])c1ccc(N2CCN(c3ccc(F)cc3)CC2)nc1`, the kinetic solubility came to 0.3 µg/mL (≈ 0.992 µM). `O=C(Nc1ccccc1N1CCCC1)c1ccc2ccccc2c1` yielded a kinetic solubility of 2.7 µg/mL (≈ 8.53 µM). Turning to `Cc1ccc(N2CCN(S(=O)(=O)c3ccc(C)cc3)CC2)cc1`, the kinetic solubility was less than 0.4 µg/mL. With `NC(=O)/C(=C\c1cccnc1)NC(=O)c1ccccc1`, the solubility (kinetic) was greater than 40.1 µg/mL. With `COc1ccc(Cl)cc1C(=O)Nc1ccncc1` the figure was greater than 39.4 µg/mL.

On to `COc1ccccc1C(=O)NCCC(=O)NCC1CCCCC1`, for which the kinetic solubility was 47.4 µg/mL (≈ 149 µM). With `O=C(CCc1cccc(Cl)c1)N1CCCC(Nc2ccccc2)C1` (centres undefined) the figure was 27.4 µg/mL (≈ 79.9 µM); with `CN(C)c1nc(N(C)C)nc(N2CC(CCl)OC2=N)n1` (centres undefined), greater than 45 µg/mL; with `COc1ccc(-n2cc(-c3ccc(Br)cc3)[nH]c2=S)cc1`, less than 0.4 µg/mL. The molecule `CC(C)n1c(=S)[nH]c2cc(Cl)ccc21` displayed a kinetic solubility of 11 µg/mL (≈ 48.5 µM).

For the molecule `COc1ccc(NC(=S)NC(C)c2ccncc2)cc1OC` (centres undefined), the kinetic solubility was determined as 46.7 µg/mL (≈ 147 µM). Molecule `CC(=O)c1ccc(NC2=NCCCS2)cc1` registered a kinetic solubility greater than 35.1 µg/mL. With `CC(C)N(C(=O)Cc1ccccc1[N+](=O)[O-])C(C)C` the figure was greater than 39.6 µg/mL. As for `COc1ccc(NC(=O)N2CCCc3ccccc32)cc1OC`, the figure is greater than 46.9 µg/mL.

Turning to `COc1cc(/C=C/c2ccc3cccc(O)c3n2)cc(OC)c1OC`, the kinetic solubility is less than 0.7 µg/mL. `CCOC(=O)/C(C#N)=C\C1=C(N2CCOCC2)CC(C)(C)OC1` displayed a kinetic solubility greater than 48.1 µg/mL. As for `CC1(C)CC(=O)C2=C(C1)NC(=O)NC2c1ccc(Cl)cc1` (centres undefined), the figure is 6.9 µg/mL (≈ 22.6 µM); as for `Cc1c(CCOC(=O)c2ccc(Cl)cc2Cl)sc[n+]1CC(=O)c1ccc(Br)cc1.[Br-]`, 40.6 µg/mL; as for `O=C(NCc1ccc2c(c1)CCO2)Nc1ccccc1`, 8.7 µg/mL (≈ 32.4 µM).

(Values after PubChem BioAssay AID1996.)
